{"source": "paper PMC12508057", "about": "“Discovery of ETI41 and ETI60: novel selective endosomal Toll-like receptor inhibitors for the treatment of autoimmune diseases” (Experimental & Molecular Medicine, 2025)", "molecular_target": "T1, TLR9 (Mus musculus, UniProt Q9EQU3)", "T1 construct": "RAW 264.7 and differentiated THP-1 cells were seeded into 96-well plates; endogenous in cells; host or cells: RAW 264.7", "T1 sequence (Q9EQU3 26-1032)": "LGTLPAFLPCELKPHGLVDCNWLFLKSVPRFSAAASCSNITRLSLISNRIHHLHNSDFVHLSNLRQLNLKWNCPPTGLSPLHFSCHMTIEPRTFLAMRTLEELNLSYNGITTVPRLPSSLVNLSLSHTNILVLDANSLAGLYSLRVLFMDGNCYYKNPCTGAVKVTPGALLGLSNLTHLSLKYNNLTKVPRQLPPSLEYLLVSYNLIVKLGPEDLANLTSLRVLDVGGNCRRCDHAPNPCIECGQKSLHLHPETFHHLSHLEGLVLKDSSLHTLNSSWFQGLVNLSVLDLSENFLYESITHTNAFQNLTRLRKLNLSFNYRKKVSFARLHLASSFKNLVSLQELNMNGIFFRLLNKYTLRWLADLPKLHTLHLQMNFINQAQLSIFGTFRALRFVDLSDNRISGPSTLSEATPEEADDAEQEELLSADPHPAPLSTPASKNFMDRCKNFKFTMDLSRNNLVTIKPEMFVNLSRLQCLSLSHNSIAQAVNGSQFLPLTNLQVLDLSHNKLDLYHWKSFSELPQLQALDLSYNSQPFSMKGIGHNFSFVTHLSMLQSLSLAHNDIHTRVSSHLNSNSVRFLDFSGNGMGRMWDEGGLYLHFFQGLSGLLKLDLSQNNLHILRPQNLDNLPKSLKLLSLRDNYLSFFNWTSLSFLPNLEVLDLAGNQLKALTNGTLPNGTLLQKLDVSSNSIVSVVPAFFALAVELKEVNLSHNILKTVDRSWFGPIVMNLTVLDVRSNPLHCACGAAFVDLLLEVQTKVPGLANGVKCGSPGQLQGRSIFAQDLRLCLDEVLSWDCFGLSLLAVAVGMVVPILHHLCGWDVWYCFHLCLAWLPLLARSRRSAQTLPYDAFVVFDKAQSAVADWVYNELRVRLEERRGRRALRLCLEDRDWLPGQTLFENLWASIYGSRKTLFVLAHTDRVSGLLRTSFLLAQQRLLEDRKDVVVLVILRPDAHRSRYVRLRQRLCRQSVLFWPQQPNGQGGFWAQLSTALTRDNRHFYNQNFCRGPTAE", "assay": "Real-time quantitative PCR in BMDCs stimulated with ODN2395", "format": "cell-based", "details": "primary BMDCs, 0.2 and 1 μM, ODN2395 1 μM", "protocol": "Bone marrow cells from 8-week-old C57BL/6 mice (Jackson Laboratory) were cultured in RPMI 1640 with 20 ng/ml granulocyte-macrophage colony-stimulating factor (GM-CSF; Thermo Fisher Scientific) for 8 days. Bone marrow-derived dendritic cell (BMDC) purity was confirmed by fluorescence-activated cell sorting (FACS), showing 84% F4/80^− and CD11c^+ cells. […] Total mRNA was extracted using TRIzol reagent (Thermo Fisher Scientific) and reverse transcribed using the ReverTra Ace qPCR RT Kit (Toyobo). mRNA levels were determined using SYBR Green PCR Master Mix (Kapa Biosystems) and a CFX Connect RT-PCR System (Bio-Rad). Primers used were directed against IL-12p40, IFN-β, CD40 and GAPDH.\nAll experiments were independently conducted three times."}
{"smiles": "Cc1cc2c(N)c3c(nc2n1CCCN(C)C)CCCCCC3", "note": "[ETI41]", "values": [{"measurement": "Production of IL-12p40, IFN-β and CD40 (mRNA)", "value": "significantly inhibited"}]}
